Results on two compounds are retold here after ChEMBL document CHEMBL1147787, “Synthesis and preliminary antitumor activity evaluation of a DHA and doxorubicin conjugate” (Bioorg Med Chem Lett, 2006).

The structures appear in SMILES notation. Calls of active or inactive are those of the source. The calls are words filed in the database; no cut-off is given here.

One experiment relates to L1210. Nature of the experiment: Antitumor activity against mouse L1210 cell line assessed as inhibition of [3H]thymidine incorporation. The experiment is classed as functional, cell-based.
Experiment [1] relates to Mus musculus. Put plainly: Antitumor activity in BDF1 mouse bearing L1210 leukemia assessed as survival for 30 days at 32 ug/kg, ip. Format: functional, organism-based.
Experiment [2] relates to Mus musculus. Nature of the experiment: Antitumor activity in BDF1 mouse bearing L1210 leukemia assessed as survival for 30 days at 8 ug/kg, ip. Format: functional, organism-based.
Experiment [3] concerns Mus musculus. Put plainly: Antitumor activity in BDF1 mouse bearing B16 melanoma assessed as loss of body weight at 30 mg/kg, ip. To be noted: route intraperitoneal. The experiment is classed as functional.
Experiment [4] relates to Mus musculus. Nature of the experiment: Antitumor activity in BDF1 mouse bearing L1210 leukemia assessed as loss of body weight at 32 ug/kg, ip. Format: functional.
Experiment [5] has as its system Mus musculus. Put plainly: Antitumor activity in BDF1 mouse bearing L1210 leukemia assessed as loss of body weight at 16 ug/kg, ip. Format: functional.
Experiment [6] relates to Mus musculus. Put plainly: Antitumor activity in BDF1 mouse bearing L1210 leukemia assessed as loss of body weight at 8 ug/kg, ip. Format: functional.
Experiment [7] concerns Mus musculus. Put plainly: Antitumor activity in BDF1 mouse bearing L1210 leukemia assessed as increase in life span at 32 ug/kg, ip relative to control. The experiment is classed as functional.
Experiment [8] has as its system Mus musculus. Nature of the experiment: Antitumor activity in BDF1 mouse bearing L1210 leukemia assessed as increase in life span at 16 ug/kg, ip relative to control. Format: functional.
Experiment [9] relates to Mus musculus. Put plainly: Antitumor activity in BDF1 mouse bearing L1210 leukemia assessed as increase in life span at 8 ug/kg, ip relative to control. The experiment is classed as functional.
For experiment [10], the system named is Mus musculus. Put plainly: Antitumor activity in BDF1 mouse bearing B16 melanoma assessed as loss of body weight at 20 mg/kg, ip. Format: functional. To be noted: route intraperitoneal.
The test system of experiment [11] is Mus musculus. Nature of the experiment: Antitumor activity in BDF1 mouse bearing B16 melanoma assessed as inhibition of tumor growth at 30 mg/kg, ip relative to control. Format: functional. To be noted: route intraperitoneal.
For experiment [12], the system named is Mus musculus. Nature of the experiment: Antitumor activity in BDF1 mouse bearing B16 melanoma assessed as inhibition of tumor growth at 20 mg/kg, ip relative to control. The experiment is classed as functional. To be noted: route intraperitoneal.
Experiment [13] concerns Mus musculus. Put plainly: Antitumor activity in BDF1 mouse bearing L1210 leukemia assessed as increase in life span at 5 ug/kg, ip relative to control. The experiment is classed as functional.
Experiment [14] has as its system Mus musculus. Nature of the experiment: Antitumor activity in BDF1 mouse bearing L1210 leukemia assessed as survival for 30 days at 5 ug/kg, ip. The experiment is classed as functional, organism-based.
The subject of experiment [15] is Mus musculus. Put plainly: Antitumor activity in BDF1 mouse bearing L1210 leukemia assessed as loss of body weight at 5 ug/kg, ip. The experiment is classed as functional.
Experiment [16] has as its system Mus musculus. Put plainly: Antitumor activity in BDF1 mouse bearing B16 melanoma assessed as loss of body weight at 5 mg/kg, ip. Format: functional. To be noted: route intraperitoneal.
In experiment [17] the test system is Mus musculus. Put plainly: Antitumor activity in BDF1 mouse bearing B16 melanoma assessed as inhibition of tumor growth at 5 mg/kg, ip relative to control. To be noted: route intraperitoneal. Format: functional.

`CC/C=C/C/C=C/C/C=C/C/C=C/C/C=C/C/C=C/CCC(=O)N/N=C(\CO)[C@]1(O)Cc2c(O)c3c(c(O)c2[C@@H](OC2C[C@H](N)[C@H](O)[C@H](C)O2)C1)C(=O)c1c(OC)cccc1C3=O.Cl` (stereo partly specified): the half-inhibitory concentration (IC50) in the experiment on L1210 was determined as 1400 nM. In addition, the outcome in the experiment with Mus musculus [1] and with Mus musculus [2] was inactive. In addition, the Activity in the experiment with Mus musculus [3] is -6%; in the experiment on Mus musculus [4], -11%; in the experiment with Mus musculus [5] it was -4%; in the experiment with Mus musculus [6], -2%; with Mus musculus [7], 80%; in the experiment on Mus musculus [8], 107%. Besides, the Activity in the experiment with Mus musculus [9] was 53%; in the experiment on Mus musculus [10], -6%. Moreover, the inhibition in vivo at 30 mg/kg with Mus musculus [11] is 70%. For the same compound, the inhibition in vivo at 20 mg/kg with Mus musculus [12] came to 53%.
For `COc1cccc2c1C(=O)c1c(O)c3c(c(O)c1C2=O)C[C@@](O)(C(=O)CO)C[C@@H]3O[C@H]1C[C@H](N)[C@H](O)[C@H](C)O1` [DOXORUBICIN], the Activity in the experiment on Mus musculus [13] was 53%; in the experiment on Mus musculus [6], -19%; in the experiment on Mus musculus [15], -7%; in the experiment on Mus musculus [16] it was -10%. Also, in the experiment with L1210, the half-maximal inhibitory concentration (IC50) is 150 nM. The outcome with Mus musculus [2] and in the experiment on Mus musculus [14] was inactive. Moreover, in the experiment with Mus musculus [17], the inhibition in vivo at 5 mg/kg worked out at 35%.
